Experiments:
normal prostate cells = assay: topical labeling of prostate cells during surgery, imaged by fibered confocal fluorescence microscopy; type: in vivo; conditions: rat during a surgical procedure
Excerpt: The marker bar indicates 30 microns.
The imaging equipment selected for use in the present invention was a Cell-vizio (purchased from Mauna Kea Technologies), an ultra-high resolution molecular imaging system that employs fibered confocal fluorescence microscopy technology. This system was specifically designed to visualize cellular structures and quantify molecular events in vivo and is composed of an autonomous Laser Scanning Unit, a range of fibered objectives made of tens of thousands of optical fibers, and a dedicated image processing and analysis software package. The system is capable of capturing images at a rate of 12 frames per second in living anesthetized animals. These images have a lateral resolution of the order of a micron, an axial resolution of 15 to 20 μm, a field of view up to 600 μm×500 μm, and can be obtained at depths up to 80 μm. The fibered probes have diameters ranging from 300 μm to 1.8 mm, allowing for access to the narrow spaces posterior to the prostate where the cavernous nerves are located.

[1] = cited from earlier work

Substance: acriflavine
- in vivo labeling of normal prostate cells (FIG. 3) (normal prostate cells): normal prostate cells labeled

Substance: Alexa Fluor 488
- water solubility [1]: water solubility, with no organic co-solvents required in labeling reactions
- photostability ([1]; compared with fluorescein): much greater photostability than fluorescein
